The values below come from patent publication US5750321A, “Process for buffering concentrated aqueous slurries” (priority 1997, dated 1998).

Broadly, the pKa is the negative logarithm of the acid dissociation constant.

“Also recorded” adds a separate entry of the source. Where two headings read alike, the source gives them in different places.

The conditions of series [1]: Table 1; cited from earlier work.
Series [2] is described as follows: Electroacoustic sonic amplitude (ESA) electrokinetics of dye slurries as a function of pH. The series is classed as physicochemical.
The conditions of series [3]: Langmuir 8, 291 (1992), cited from earlier work.
The nature of series [4]: Buffering of S1 slurry: pH measured after additions of aqueous buffering salt. Format: physicochemical. To be noted: small additions of 0.1 mole/L salt to S1 slurry.
Protocol: Measurements of pH were made using a Corning combination pH electrode, calibrated with VWR buffers of pH 4.0 and pH 7.0, using a Radiometer Copenhagen PHM63 pH meter. Equilibrated measurements were taken at about 24° C. while stirring the solutions or slurries.
About 97.0 g of the above described S1 slurry were placed in a 200 mL beaker upon a magnetic stirrer, and this slurry was moderately stirred using a magnetic stirring bar.
About 93.9 g of the above described S1 slurry were placed in a 200 mL beaker upon a magnetic stirrer, and was moderately stirred. […] Aliquots of 0.1 mole/L aqueous sodium citrate were added, and pH was recorded after each addition.
About 95.7 g of the above described S1 slurry were placed in a 200 mL beaker with moderate stirring. […] Aliquots of 0.1 mole/L aqueous sodium tartrate were added, and pH was recorded.
About 95.4 g of the above described S1 slurry were placed in a 200 mL beaker and was moderately stirred.
About 93.3 g of the above described S1 slurry were placed in a 200 mL beaker and stirred.
The mark [5] stands for this setting: FD2 slurry without surfactant, Texter.

Turning to `O=S1(=O)CCCCN1`, the “pKa at 25° C.” value in series [1] was 12.02.
`CC1=NN(c2ccc(C(=O)O)cc2)C(=O)C1=CC=Cc1c(C)nn(-c2ccc(C(=O)O)cc2)c1O` [FD1]: the “lowest apparent pKa relative to FD2” value in series [2] (FD1 slurries compared with FD2) is reported as “three pH units lower”. Also, the “lowest apparent pKa” value in series [2] (FD1 slurries without dispersing aid, FIG. 2) is given as “about 2”. Besides, the “solubility of the dye with increasing pH” value in series [2] (above pH 5, upturn in ESA) is reported as “marked increased solubility”. Moreover, the intrinsic electrokinetic charge result in series [2] (sign of charge, ESA) is “negative”.
As to `CC1=NN(c2ccc(C(=O)O)cc2)C(=O)C1=Cc1c(C)nn(-c2ccc(C(=O)O)cc2)c1O` [FD2], in series [3] (setting [5]), the “pH interval of abrupt S-shaped ESA transition” value was 4-6 pH and the “predominately carboxy group-based surface pKa” value is reported as “about 5.0”. Further, the intrinsic electrokinetic charge entry in series [3] (sign of charge, shown earlier by Texter) is on record as “negative”.
Consider `O=C(O)c1ccco1` [Furoic acid], for which the “pKa at 25° C.” value in series [1] is 3.17.
Turning to `CC(=O)O` [sodium acetate], the “effect on slurry pH / pH control (in words)” value in series [4] was “increases the slurry pH to a significant extent; also recorded: significantly increases the slurry pH”.
As to `O=C(O)c1ccccc1` [sodium benzoate], the “effect on slurry pH / pH control (in words)” value in series [4] is “very effective at providing significant pH control at relatively low concentrations”.
Consider `O=C([O-])c1ccccc1O.[Na+]` [sodium salicylate], for which, in series [4], the “effect on slurry pH / pH control (in words)” value is given as “provides some pH control”.
